Converted amounts (≈) assume the structure as drawn. The source made the active and inactive calls. No cut-off for these calls is given here.
How the values were obtained:
Candida albicans [1] = experiment: Antifungal activity against Candida albicans ATCC 10231 assessed as reduction in fungal growth incubated for 48 hrs by broth microdilution method; type: functional
Candida albicans [2] = experiment: Antifungal activity against Candida albicans ATCC 18804 assessed as reduction in fungal growth incubated for 48 hrs by broth microdilution method; type: functional
Nakaseomyces glabratus [3] = experiment: Antifungal activity against Candida glabrata ATCC 2001 assessed as reduction in fungal growth incubated for 48 hrs by broth microdilution method; type: functional
Pichia kudriavzevii [4] = experiment: Antifungal activity against Candida krusei ATCC 34135 assessed as reduction in fungal growth incubated for 48 hrs by broth microdilution method; type: functional
Candida tropicalis [5] = experiment: Antifungal activity against Candida tropicalis ATCC 28707 assessed as reduction in fungal growth incubated for 48 hrs by broth microdilution method; type: functional
Candida albicans [6] = experiment: Antifungal activity against Candida albicans isolate 1 assessed as reduction in fungal growth incubated for 48 hrs by broth microdilution method; type: functional
Candida albicans [7] = experiment: Antifungal activity against Candida albicans isolate 2 assessed as reduction in fungal growth incubated for 48 hrs by broth microdilution method; type: functional
Candida albicans [8] = experiment: Antifungal activity against Candida albicans isolate 3 assessed as reduction in fungal growth incubated for 48 hrs by broth microdilution method; type: functional
Candida albicans [9] = experiment: Antifungal activity against Candida albicans isolate 4 assessed as reduction in fungal growth incubated for 48 hrs by broth microdilution method; type: functional
Candida albicans [10] = experiment: Antifungal activity against Candida albicans isolate 5 assessed as reduction in fungal growth incubated for 48 hrs by broth microdilution method; type: functional
Candida albicans [11] = experiment: Antifungal activity against Candida albicans isolate 6 assessed as reduction in fungal growth incubated for 48 hrs by broth microdilution method; type: functional
Candida albicans [12] = experiment: Antifungal activity against Candida albicans isolate 7 assessed as reduction in fungal growth incubated for 48 hrs by broth microdilution method; type: functional
Candida albicans [13] = experiment: Antifungal activity against Candida albicans isolate 8 assessed as reduction in fungal growth incubated for 48 hrs by broth microdilution method; type: functional
Candida albicans [14] = experiment: Antifungal activity against Candida albicans isolate 9 assessed as reduction in fungal growth incubated for 48 hrs by broth microdilution method; type: functional
Candida albicans [15] = experiment: Antifungal activity against Candida albicans isolate 10 assessed as reduction in fungal growth incubated for 48 hrs by broth microdilution method; type: functional
Candida albicans [16] = experiment: Antifungal activity against Candida albicans isolate 11 assessed as reduction in fungal growth incubated for 48 hrs by broth microdilution method; type: functional
Candida albicans [17] = experiment: Antifungal activity against Candida albicans isolate 12 assessed as reduction in fungal growth incubated for 48 hrs by broth microdilution method; type: functional
Candida albicans [18] = experiment: Antifungal activity against Candida albicans isolate 13 assessed as reduction in fungal growth incubated for 48 hrs by broth microdilution method; type: functional
Candida albicans [19] = experiment: Fungicidal activity against Candida albicans ATCC 18804 assessed as fungal killing incubated for 48 hrs followed by plating on SD agar plate; type: functional; conditions: read-out: MFC99.9
Candida albicans [20] = experiment: Fungicidal activity against Candida albicans ATCC 10231 assessed as fungal killing incubated for 48 hrs followed by plating on SD agar plate; type: functional; conditions: read-out: MFC99.9
Nakaseomyces glabratus [21] = experiment: Fungicidal activity against Candida glabrata ATCC 2001 assessed as fungal killing incubated for 48 hrs followed by plating on SD agar plate; type: functional; conditions: read-out: MFC99.9
Pichia kudriavzevii [22] = experiment: Fungicidal activity against Candida krusei ATCC 34135 assessed as fungal killing incubated for 48 hrs followed by plating on SD agar plate; type: functional; conditions: read-out: MFC99.9
Candida tropicalis [23] = experiment: Fungicidal activity against Candida tropicalis ATCC 28707 assessed as fungal killing incubated for 48 hrs followed by plating on SD agar plate; type: functional; conditions: read-out: MFC99.9
Candida albicans [24] = experiment: Fungicidal activity against Candida albicans isolate 2 assessed as fungal killing incubated for 48 hrs followed by plating on SD agar plate; type: functional; conditions: read-out: MFC99.9
Candida albicans [25] = experiment: Fungicidal activity against Candida albicans isolate 4 assessed as fungal killing incubated for 48 hrs followed by plating on SD agar plate; type: functional; conditions: read-out: MFC99.9
Candida albicans [26] = experiment: Fungicidal activity against Candida albicans isolate 6 assessed as fungal killing incubated for 48 hrs followed by plating on SD agar plate; type: functional; conditions: read-out: MFC99.9
Candida albicans [27] = experiment: Fungicidal activity against Candida albicans isolate 7 assessed as fungal killing incubated for 48 hrs followed by plating on SD agar plate; type: functional; conditions: read-out: MFC99.9
Candida albicans [28] = experiment: Fungicidal activity against Candida albicans isolate 8 assessed as fungal killing incubated for 48 hrs followed by plating on SD agar plate; type: functional; conditions: read-out: MFC99.9
Candida albicans [29] = experiment: Fungicidal activity against Candida albicans isolate 9 assessed as fungal killing incubated for 48 hrs followed by plating on SD agar plate; type: functional; conditions: read-out: MFC99.9
Candida albicans [30] = experiment: Fungicidal activity against Candida albicans isolate 10 assessed as fungal killing incubated for 48 hrs followed by plating on SD agar plate; type: functional; conditions: read-out: MFC99.9
Candida albicans [31] = experiment: Fungicidal activity against Candida albicans isolate 11 assessed as fungal killing incubated for 48 hrs followed by plating on SD agar plate; type: functional; conditions: read-out: MFC99.9
Candida albicans [32] = experiment: Fungicidal activity against Candida albicans isolate 12 assessed as fungal killing incubated for 48 hrs followed by plating on SD agar plate; type: functional; conditions: read-out: MFC99.9
Candida albicans [33] = experiment: Fungicidal activity against Candida albicans isolate 13 assessed as fungal killing incubated for 48 hrs followed by plating on SD agar plate; type: functional; conditions: read-out: MFC99.9
Candida albicans [34] = experiment: Fungicidal activity against Candida albicans ATCC 10231 assessed as reduction in fungal load at 125 ug/ml incubated for 48 hrs followed by inoculation on SD agar plate for 48 hrs by time-kill assay; type: functional, organism-based; conditions: dose 125.0 µg/ml, time 96.0 hrs
Candida albicans [35] = experiment: Antifungal activity against Candida albicans ATCC 10231 assessed as inhibition of yeast to hypha morphological transition at 125 ug/ml measured upto 72 hrs by microscopic analysis; type: functional, organism-based; conditions: dose 125.0 µg/ml, time hrs <=72

Work on `CC(=O)N1CCN(c2ccc(OCC3COC(Cn4ccnc4)(c4ccc(Cl)cc4Cl)O3)cc2)CC1` (stereo not given) [KETOCONAZOLE] yielded an MIC (Candida albicans [1]) of 31.2 µg/mL (≈ 58.8 µM), an MIC (Candida albicans [2]) of 31.2 µg/mL (≈ 58.8 µM) and an MIC (Nakaseomyces glabratus [3]) of 125 µg/mL (≈ 235 µM). For the same molecule, the MIC (Pichia kudriavzevii [4]) was 7.8 µg/mL (≈ 14.7 µM), the MIC (Candida tropicalis [5]) was 31.2 µg/mL (≈ 58.8 µM) and the MIC (Candida albicans [6]) was > 500 µg/mL. The MIC (Candida albicans [7]) was 62.3 µg/mL (≈ 117 µM), the MIC (Candida albicans [8]) was > 500 µg/mL and the MIC (Candida albicans [9]) was 31.2 µg/mL (≈ 58.8 µM). The MIC (Candida albicans [10]) was > 500 µg/mL, the MIC (Candida albicans [11]) was 0.97 µg/mL (≈ 1.83 µM) and the MIC (Candida albicans [12]) was 1.95 µg/mL (≈ 3.67 µM). It also gave an MIC (Candida albicans [13]) of 3.9 µg/mL (≈ 7.34 µM), an MIC (Candida albicans [14]) of 31.2 µg/mL (≈ 58.8 µM) and an MIC (Candida albicans [15]) of 7.8 µg/mL (≈ 14.7 µM). For the same molecule, the MIC (Candida albicans [16]) was 31.2 µg/mL (≈ 58.8 µM), the MIC (Candida albicans [17]) was 15.6 µg/mL (≈ 29.4 µM) and the MIC (Candida albicans [18]) was 15.6 µg/mL (≈ 29.4 µM). The MFC (Candida albicans [19]) was 125 µg/mL (≈ 235 µM), the MFC (Candida albicans [20]) was 125 µg/mL (≈ 235 µM) and the MFC (Nakaseomyces glabratus [21]) was > 500 µg/mL. For the same molecule, the MFC (Pichia kudriavzevii [22]) was 7.8 µg/mL (≈ 14.7 µM), the MFC (Candida tropicalis [23]) was 62.5 µg/mL (≈ 118 µM) and the MFC (Candida albicans [24]) was > 500 µg/mL. It also gave an MFC (Candida albicans [25]) of 125 µg/mL (≈ 235 µM), an MFC (Candida albicans [26]) of 3.9 µg/mL (≈ 7.34 µM) and an MFC (Candida albicans [27]) of 7.8 µg/mL (≈ 14.7 µM). The MFC (Candida albicans [28]) was 7.8 µg/mL (≈ 14.7 µM), the MFC (Candida albicans [29]) was 250 µg/mL (≈ 470 µM) and the MFC (Candida albicans [30]) was 62.5 µg/mL (≈ 118 µM). For the same molecule, the MFC (Candida albicans [31]) was 125 µg/mL (≈ 235 µM), the MFC (Candida albicans [32]) was 500 µg/mL (≈ 941 µM) and the MFC (Candida albicans [33]) was 250 µg/mL (≈ 470 µM). For the same molecule, the Activity (Candida albicans [34]) was “inactive” and the Activity (Candida albicans [35]) was “Active”.
